ChEMBL document CHEMBL1142899, “4-amino-5-aryl-6-arylethynylpyrimidines: structure-activity relationships of non-nucleoside adenosine kinase inhibitors” (Bioorg Med Chem, 2007)
The source made the active and inactive calls. The rule behind the calls is not given here.

How the values were obtained:
Adenosine kinase [1] = target: T1, Adenosine kinase (Homo sapiens, UniProt P55263); assay: Inhibition of cytosolic adenosine kinase
Adenosine kinase [2] = target: T1, Adenosine kinase; assay: Inhibition of adenosine kinase in intact cells assessed as adenosine phosphorylation; assay type: functional, cell-based
Mus musculus = assay: Analgesic activity in mouse assessed as maximal protective effect at 30 umol/kg, ip by hot plate test; assay type: functional
Rattus norvegicus [3] = assay: Reduction of formalin-induced nociception in rat at 10 umol/kg, ip by paw flinching test; assay type: functional; parameters: scale not given: the % may be the effect or the level left
Rattus norvegicus [4] = organism: Rattus norvegicus; assay: Analgesic activity in spinal nerve ligated Sprague-Dawley rat by chung assay neuropathic pain animal model; assay type: functional, organism-based
[5] = Volume of distribution in rat at 5 umol/kg, iv; assay type: ADME, organism-based; conditions: in vivo, read-out: Vbeta
[6] = Cmax in rat at 5 umol/kg, po; assay type: ADME, organism-based; parameters: dose 5 umol/kg, route oral; conditions: in vivo
Rattus norvegicus [7] = assay: Reduction of formalin-induced nociception in rat upto 30 umol/kg, ip by paw flinching test; assay type: functional, organism-based
[8] = Metabolic stability in rat hepatocyte after 24 hrs; assay type: ADME, cell-based; conditions: hepatocytes, read-out: Stability
[9] = Plasma clearance in rat at 5 umol/kg, iv; assay type: ADME, organism-based
[10] = Bioavailability in rat at 5 umol/kg, po; assay type: ADME, organism-based; conditions: in vivo
[11] = Half life in rat at 5 umol/kg, iv; assay type: ADME, organism-based; conditions: in vivo
[12] = Metabolic stability in human liver microsomes after 1 hr; assay type: ADME, Microsome; conditions: read-out: Stability

T1 sequence (P55263 whole entry): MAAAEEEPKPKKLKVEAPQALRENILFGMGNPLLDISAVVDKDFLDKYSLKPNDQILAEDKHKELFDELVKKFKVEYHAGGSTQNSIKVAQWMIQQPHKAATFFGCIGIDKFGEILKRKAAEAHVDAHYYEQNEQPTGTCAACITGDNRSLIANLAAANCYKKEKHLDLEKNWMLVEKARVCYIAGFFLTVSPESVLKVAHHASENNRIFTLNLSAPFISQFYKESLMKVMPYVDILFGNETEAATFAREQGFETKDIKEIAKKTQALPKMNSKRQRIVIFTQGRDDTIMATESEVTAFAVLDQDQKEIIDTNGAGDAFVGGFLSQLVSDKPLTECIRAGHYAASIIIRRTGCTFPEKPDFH

| SMILES | IC50 (Adenosine kinase [1]) [µM] | IC50 (Adenosine kinase [2]) [µM] | further results |
| --- | --- | --- | --- |
| CN(C)c1ccc(C#Cc2ncnc(N)c2C(c2ccccc2)c2ccccc2)cc1 | 0.6 |  |  |
| Nc1ncnc(C#Cc2cnc(N3CCOCC3)nc2)c1-c1ccc(Cl)cc1 | 0.008 | 0.2 | Activity (Mus musculus): 100%; Activity (Rattus norvegicus [3]): 36%; Activity (Rattus norvegicus [4]): inactive |
| Nc1ncnc(C#Cc2ccc(N3CCOCC3)nc2)c1-c1ccc(Cl)cc1 | 0.003 | 0.058 | Activity (Mus musculus): 100%; Activity (Rattus norvegicus [3]): 29%; Activity (Rattus norvegicus [4]): inactive |
| Nc1ncnc(C#Cc2ccc(N3CCOCC3)nc2)c1-c1ccsc1 | 0.038 | 0.212 |  |
| CN(C)c1ccc(C#Cc2ncnc(N)c2-c2ccc3c(c2)OCO3)cc1 |  | 0.25 |  |
| CC(C)(C)OC(=O)N1CCN(c2ccc(C#Cc3ncnc(N)c3-c3ccc(Cl)cc3)cn2)CC1 | 0.062 | > 1 |  |
| CN(C)c1ccc(C#Cc2cc(N)ncn2)cc1 | > 1 |  |  |
| COCCN(C)c1cc(N2CCOCC2)ncc1C#Cc1ncnc(N)c1-c1ccc2c(c1)OCO2 | 0.101 | 0.198 |  |
| Nc1ncnc2nc(-c3ccc(N4CCOCC4)nc3)cc(-c3cccc(Br)c3)c12 |  |  | Vd [5]: 1 L/kg; Cmax [6]: 550 ng/mL |
| Nc1ncnc(C#Cc2ccc(N3CCOCC3)nc2)c1-c1cc2ccccc2o1 | 0.001 | 0.123 | Activity (Rattus norvegicus [3]): 36% |
| C#Cc1ncnc(N)c1-c1ccc2c(c1)OCO2 | > 1 |  |  |
| CN(C)c1ccc(C#Cc2ncnc(N3CCOCC3)c2-c2ccc(Cl)cc2)cc1 | 0.006 | 0.97 |  |
| CN(C)c1ccc(C#Cc2ncnc(NCCc3c[nH]c4ccccc34)c2-c2ccc(Cl)cc2)cc1 | 0.038 | > 1 |  |
| CN(C)c1cc(N2CCOCC2)ncc1C#Cc1ncnc(N)c1-c1ccc2c(c1)OCO2 | 0.072 | 0.215 |  |
| CN(C)c1cc(C#Cc2ncnc(N)c2-c2ccc3c(c2)OCO3)cnc1N1CCOCC1 | 0.026 | 0.161 | Activity (Rattus norvegicus [7]): inactive |
| Cc1ccc(-c2c(N)ncnc2C#Cc2ccc(N(C)C)cc2)cc1 | 0.013 | 0.33 |  |
| CN(C)c1ccc(C#Cc2ncnc(N)c2-c2ccccc2)cc1 |  | > 1 |  |
| Nc1ncnc(C#Cc2ccc(N3CCOCC3)nc2)c1-c1cc2ccccc2s1 | 0.0004 | 0.1 | Activity (Rattus norvegicus [3]): 49% |
| Nc1ncnc(C#Cc2ccc(N3CCOCC3)nn2)c1-c1ccc(Cl)cc1 | 0.045 | 0.7 |  |

| SMILES | IC50 (Adenosine kinase [1]) [µM] | IC50 (Adenosine kinase [2]) [µM] | further results |
| --- | --- | --- | --- |
| Cc1nc(N)c(-c2ccccc2)c(C#Cc2ccc(N(C)C)cc2)n1 | > 1 |  |  |
| CN(C)c1ccc(C#Cc2ncnc(N)c2-c2ccc(Cl)cc2)cn1 |  |  | Activity (Mus musculus): 73%; Activity (Rattus norvegicus [3]): 20%; Activity (Rattus norvegicus [4]): inactive |
| CC(C)NC(=O)Nc1cc(C#Cc2ncnc(N)c2-c2ccc3c(c2)OCO3)cnc1N1CCOCC1 | 0.018 | 0.088 |  |
| CN(C)c1ccc(C#Cc2ncnc(N)c2-c2ccc(N(C)C)cc2)cc1 | 0.005 | 0.24 |  |
| Nc1ncnc(C#Cc2cncc(N3CCOCC3)c2)c1-c1ccc(Cl)cc1 | 0.008 | 0.11 | Activity (Rattus norvegicus [3]): 49% |
| CN(C)c1ccc(-c2c(N)ncnc2C#Cc2ccc(N3CCOCC3)nc2)cc1 | 0.002 |  | Vd [5]: 0.7 L/kg; remaining at 24 h [8]: 21%; Activity (Mus musculus): 100%; Activity (Rattus norvegicus [3]): 44%; clearance [9]: 16.7 mL/min/kg; bioavailability [10]: 9%; half-life [11]: 30 min; Cmax [6]: 80 ng/mL; remaining at 1 h [12]: 74% |
| CC(C)c1ccc(C#Cc2ncnc(N)c2-c2ccc(Cl)cc2)cc1 | 0.05 | > 1 |  |
| Nc1ncnc(C#Cc2ccc(N3CCOCC3)nc2)c1-c1ccc2c(c1)OCO2 | 0.01 | 0.12 | Activity (Rattus norvegicus [3]): 47% |
| Nc1ncnc(C#Cc2ccccn2)c1-c1ccc(Cl)cc1 | 0.5 | > 1 |  |
| CN(C)c1ccc(C#Cc2ncnc(N(C)C)c2-c2ccc(Cl)cc2)cc1 | 0.3 | > 1 |  |
| COc1ccc(-c2c(N)ncnc2C#Cc2ccc(N(C)C)cc2)cc1OC | 0.02 | 0.5 |  |
| COCCN(C)c1ccc(C#Cc2ncnc(N)c2-c2ccc(Cl)cc2)cn1 | 0.001 | 0.08 | Activity (Rattus norvegicus [3]): 48% |
| Nc1ncnc(C#Cc2ccc(N3CCOCC3)nc2)c1-c1cccs1 | 0.013 | 0.167 | Activity (Rattus norvegicus [3]): 44% |
| Nc1ncnc(C#Cc2ccc(N3CCOCC3)cc2)c1-c1ccc(Cl)cc1 | 0.017 | 0.275 | Activity (Mus musculus): 67%; Activity (Rattus norvegicus [3]): 20% |
| CN(C)c1ccc(C#Cc2ncnc(N3CCNCC3)c2-c2ccc(Cl)cc2)cc1 | 0.008 | > 1 |  |
| CN(C)c1ccc(C#Cc2ncnc(N)c2-c2cccc(Cl)c2)cc1 | 0.01 | 0.55 |  |
| CN(C)c1ccc(C#Cc2cc(NCc3ccccc3)ncn2)cc1 | > 1 |  |  |
| CN(C)c1ccc(C#Cc2ncnc(N)c2-c2ccccc2Cl)cc1 | 0.075 | 0.7 |  |
| CN(C)c1ccc(C#Cc2ncnc(NCCc3c[nH]cn3)c2-c2ccc(Cl)cc2)cc1 | 0.08 | > 1 |  |
